Data from patent US20220056044A1, “TRICYCLIC COMPOUNDS AS STING AGONISTS, AND PREPARATION METHODS AND MEDICINAL USES THEREOF” (Jiangsu Hengrui Medicine Co., Ltd., priority 2018, published 2022).

Experiments:
Human PBMC cells = experiment: IFNβ secretion from human PBMC (ELISA); assay type: cell-based; conditions: 5 hours incubation, IFNβ in supernatant by ELISA
Description: Test Example 3. IFNβ Secretion from Human PBMC
1. Human PBMC cells (STEMCELL Technologies)
Cryopreserved peripheral blood human mononuclear cells (PBMCs) were rapidly thawed and resuspended in Lymphocyte Media and centrifuged at 500×g for 5 minutes. The supernatant was removed and the cell pellets were gently resuspended in cell culture and compound dilution media. Then the cells were plated in a 96-well format at a concentration of 1.5×10^5 per well. The test compounds, at varying concentrations, or vehicle control (<0.3% DMSO) were mixed with the cells giving a final volume of 150 μl per well. The plates were incubated in a humidified, 5% CO2 incubator at 37° C. for 5 hours. After incubation, the human IFNβ in the supernatant and the IFNβ standard controls were measured using human IFNβ Quantikine ELISA kit according to the manufacturer's protocol. The absorbance at 450 nm was measured with Infinite M1000 plate reader and corrected by background reading at 540 nm of each well. The concentration of IFNβ secreted was calculated based on the standard curves. The plot of IFNβ concentration versus the log of compound concentration was fit in GraphPad Prism with a 4-parameter concentration response equation to calculate EC50 and Emax (see Table 5).

[1] = molecular target: T1, STING in THP1-Dual KI-hSTING-R232 cells (Homo sapiens, UniProt Q86WV6, H232R); experiment: Human THP1 reporter cell assay (IRF luciferase reporter); assay type: cell-based; conditions: 24 hours incubation
T1 construct: host or cells: THP1-Dual KI-hSTING-R232 cells
Description: Test Example 2. Human THP1 Reporter Cell Assay
1. Human THP1-Dual KI-hSTING-R232 Cells (InvivoGen, Cat. #thpd-r232)
Activation of STING in THP1-Dual KI-hSTING-R232 cells was determined by measuring the luminescence signal resulting from the expression of the IRF luciferase reporter gene. All reagent preparation and assay procedures were conducted according to the protocols provided by InvivoGen. In brief, test compounds and cells (1×10^5 cells per well) were dispensed into 96-well plates with a final volume per well of 150 μl. Plates were incubated in a humidified, 5% CO2 incubator at 37° C. for 24 hours. The expression level of the reporter gene was measured by transferring 20 μl of the supernatant to a non-transparent 96-well plate to which 50 μl of QUANTI-LUC was dispensed into each well. The resulting luminescence signal was immediately read using a TECAN plate reader. The background luminescence signal from media was subtracted. The fold induction effect of the luminescence signal at each compound concentration was determined relative to controls that lack compound treatment. The plot of fold induction effect versus the log of compound concentration was fit in GraphPad Prism with a 4-parameter concentration response equation to calculate EC50 and Emax.
Activation of STING in THP1 of the compounds in the present invention was determined by the above assay, and EC50 values are shown in the following Table 4.

[2] = molecular target: T2, hSTING R232 c-terminal domain (Homo sapiens, UniProt Q86WV6, H232R); experiment: Thermal shift assay for measuring the relative binding affinity to hSTING R232 c-terminal domain; conditions: purified hSTING R232 (aa154-342), SYPRO Orange, Tm minus mean Tm of negative control
T2 construct: Purified hSTING R232 (aa154-342)
Description: Thermal shift assay for measuring the relative binding affinity to hSTING R232 c-terminal domain.
From each of the 10 mM stock solutions of compounds in DMSO, dilutions are made to create samples with three concentrations 10 mM, 5 mM, and 2.5 mM. From these dilutions a final 50-fold dilution is made into assay buffer, giving concentrations of 200 μM, 100 μM, and 50 μM. From each of the buffer dilutions, 5 μL is added to the 384 well assay plate. A positive control is setup with cGAMP using the same dilution scheme as the ligands. A baseline thermal shift for the negative control is determined using buffer and 2% DMSO.
An aliquot of protein is thawed on ice and SYPRO orange reagent is brought to room temperature. The 5000×SYPRO orange stock is diluted in assay buffer to a concentration of 10×. Protein is diluted to a concentration of 10 μM in the prepared buffer/dye solution. Five micro-liters of protein/buffer/dye solution is added to each of the sample and control wells, and the plate is sealed with the provided films. The plate is centrifuged for 5 min at 20° C. at 1000 rpm.
On the Light Cycler instrument, measurements are made over a temperature gradient from 20° C. to 99° C. at 0.07° C./s and data acquisitions collected at a rate of 8/° C. are used to measure the change in fluorescence as a function of temperature. Data analysis is performed using the Roche Light Cycler Software to determine the melting temperature (Tm ° C.) of each sample. A mean Tm ° C. for the negative control is calculated and subtracted from each of the samples to generate the ΔTm ° C. values for each of the ligands.
The relative binding affinity to hSTING c-terminal domain of the compounds of the present invention was determined by the above assay, and ΔTm ° C. values are shown in the following Table 3.

T2 sequence (Q86WV6 154-342 H232R): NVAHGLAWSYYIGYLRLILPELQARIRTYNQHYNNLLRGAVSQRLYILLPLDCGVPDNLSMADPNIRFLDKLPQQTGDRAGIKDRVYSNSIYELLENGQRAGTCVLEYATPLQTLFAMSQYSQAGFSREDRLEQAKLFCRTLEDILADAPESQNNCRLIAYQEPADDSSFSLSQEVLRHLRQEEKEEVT
T1 sequence (Q86WV6 whole entry H232R): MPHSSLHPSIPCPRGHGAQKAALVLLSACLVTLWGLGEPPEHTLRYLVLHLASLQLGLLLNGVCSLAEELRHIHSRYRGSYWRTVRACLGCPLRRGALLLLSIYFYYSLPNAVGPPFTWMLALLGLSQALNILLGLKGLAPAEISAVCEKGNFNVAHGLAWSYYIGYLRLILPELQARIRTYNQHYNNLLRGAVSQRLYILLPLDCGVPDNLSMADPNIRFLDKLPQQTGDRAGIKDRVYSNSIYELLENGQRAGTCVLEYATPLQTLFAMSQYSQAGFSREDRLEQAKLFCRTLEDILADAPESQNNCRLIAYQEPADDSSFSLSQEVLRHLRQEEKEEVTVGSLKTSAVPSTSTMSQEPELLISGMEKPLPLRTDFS

| Structure (SMILES) | EC50 (Human PBMC cells) | EC50 [1] | ΔTm at 100 µM [2] |
| --- | --- | --- | --- |
| CCn1nc(C)cc1C(=O)Nc1nc2cc(C(N)=O)cc3c2n1[C@@H](C/C=C/C[C@H]1COc2cc(C(N)=O)cc4nc(NC(=O)c5cc(C)nn5CC)n1c24)CO3 [Example 1, (3S,3″S)-3,3″-((E)-but-2-ene-1,4-diyl)bis(2-(1-ethyl-3-methyl-1H-pyrazole-5-carboxamido)-3,4-dihydro-5-oxa-1,2a-diazaacenaphthylene-7-carboxamide)] | 0.22 µM | 0.2 µM | 14.6 °C |
| CCn1nc(C)cc1C(=O)Nc1nc2cc(C(N)=O)cc3c2n1[C@@H](C/C=C\C[C@H]1COc2cc(C(N)=O)cc4nc(NC(=O)c5cc(C)nn5CC)n1c24)CO3 [Example 2, (3S,3″S)-3,3″-((Z)-but-2-ene-1,4-diyl)bis(2-(1-ethyl-3-methyl-1H-pyrazole-5-carboxamido)-3,4-dihydro-5-oxa-1,2a-diazaacenaphthylene-7-carboxamide)] | 0.026 µM | 0.006 µM | 12.2 °C |
| CCn1nc(C)cc1C(=O)Nc1nc2cc(C(=O)O)cc3c2n1[C@@H](C/C=C/C[C@H]1COc2cc(C(=O)O)cc4nc(NC(=O)c5cc(C)nn5CC)n1c24)CO3 [Example 3, (3S,3″S)-3,3″-((E)-but-2-ene-1,4-diyl)bis(2-(1-ethyl-3-methyl-1H-pyrazole-5-carboxamido)-3,4-dihydro-5-oxa-1,2a-diazaacenaphthylene-7-carboxylic acid)] | – | – | 5.9 °C |
| CCn1nc(C)cc1C(=O)Nc1nc2cc(C(N)=O)cc3c2n1[C@@H](C/C=C/C[C@H]1COc2cc(C(N)=O)cc4nc(NC(=O)C(C)(C)C)n1c24)CO3 [Example 4, (S)-3-((E)-4-((S)-7-carbamoyl-2-(1-ethyl-3-methyl-1H-pyrazole-5-carboxamido)-3,4-dihydro-5-oxa-1,2a-diazaacenaphthylen-3-yl)but-2-en-1-yl)-2-pivalamido-3,4-dihydro-5-oxa-1,2a-diazaacenaphthylene-7-carboxamide] | – | 11.5 µM | 7.5 °C |
| CCn1nc(C)cc1C(=O)Nc1nc2cc(C(N)=O)cc3c2n1[C@@H](CCCC[C@H]1COc2cc(C(N)=O)cc4nc(NC(=O)c5cc(C)nn5CC)n1c24)CO3 [Example 5, (3S,3″S)-3,3″-(butane-1,4-diyl)bis(2-(1-ethyl-3-methyl-1H-pyrazole-5-carboxamido)-3,4-dihydro-5-oxa-1,2a-diazaacenaphthylene-7-carboxamide)] | – | 0.43 µM | 9.1 °C |
| CCn1nc(C)cc1C(=O)Nc1nc2cc(C(N)=O)cc3c2n1C(CC=CCC1CCCOc2cc(C(N)=O)cc4nc(NC(=O)c5cc(C)nn5CC)n1c24)CCCO3 (centres unmarked) [Example 7, 10,10″-(but-2-ene-1,4-diyl)bis(1-(1-ethyl-3-methyl-1H-pyrazole-5-carboxamido)-7,8,9,10-tetrahydro-6-oxa-2,10a-diazacycloocta[cd]indene-4-carboxamide)] | – | – | 6.2 °C |
| CCn1nc(C)cc1C(=O)Nc1nc2cc(C(N)=O)cc3c2n1C(CC=CC[C@H]1COc2cc(C(N)=O)cc4nc(NC(=O)c5cc(C)nn5CC)n1c24)CCCO3 (stereo partly drawn) [Example 8, 10-(4-((S)-7-carbamoyl-2-(1-ethyl-3-methyl-1H-pyrazole-5-carboxamido)-3,4-dihydro-5-oxa-1,2a-diazaacenaphthylen-3-yl)but-2-en-1-yl)-1-(1-ethyl-3-methyl-1H-pyrazole-5-carboxamido)-7,8,9,10-tetrahydro-6-oxa-2,10a-diazacycloocta[cd]indene-4-carboxamide] | – | 6.4 µM | – |
| CCn1nc(C)cc1C(=O)Nc1nc2cc(C(N)=O)cc3c2n1[C@@H](C/C=C/C[C@H]1CN(C)c2cc(C(N)=O)cc4nc(NC(=O)c5cc(C)nn5CC)n1c24)CN3C [Example 9, (4S,4′S)-4,4′-((E)-but-2-ene-1,4-diyl)bis(2-(1-ethyl-3-methyl-1H-pyrazole-5-carboxamido)-6-methyl-5,6-dihydro-4H-imidazo[1,5,4-de]quinoxaline-8-carboxamide)] | 0.14 µM | 0.054 µM | – |
| CCn1nc(C)cc1C(=O)Nc1nc2cc(C(N)=O)cc3c2n1[C@@H](C/C=C\C[C@H]1CN(C)c2cc(C(N)=O)cc4nc(NC(=O)c5cc(C)nn5CC)n1c24)CN3C [Example 10, (4S,4′S)-4,4′-((Z)-but-2-ene-1,4-diyl)bis(2-(1-ethyl-3-methyl-1H-pyrazole-5-carboxamido)-6-methyl-5,6-dihydro-4H-imidazo[1,5,4-de]quinoxaline-8-carboxamide)] | 0.05 µM | 0.012 µM | – |
| CCn1nc(C)cc1C(=O)Nc1nc2cc(C(N)=O)cc3c2n1[C@@H](C/C=C/C[C@H]1CN(CCCOC)c2cc(C(N)=O)cc4nc(NC(=O)c5cc(C)nn5CC)n1c24)CN3CCCOC [Example 11, (4S,4′S)-4,4′-((E)-but-2-ene-1,4-diyl)bis(2-(1-ethyl-3-methyl-1H-pyrazole-5-carboxamido)-6-(3-methoxypropyl)-5,6-dihydro-4H-imidazo[1,5,4-de]quinoxaline-8-carboxamide)] | 0.19 µM | 0.15 µM | – |
| CCn1nc(C)cc1C(=O)Nc1nc2cc(C(N)=O)cc3c2n1[C@@H](C/C=C\C[C@H]1CN(CCCOC)c2cc(C(N)=O)cc4nc(NC(=O)c5cc(C)nn5CC)n1c24)CN3CCCOC [Example 12, (4S,4′S)-4,4′-((Z)-but-2-ene-1,4-diyl)bis(2-(1-ethyl-3-methyl-1H-pyrazole-5-carboxamido)-6-(3-methoxypropyl)-5,6-dihydro-4H-imidazo[1,5,4-de]quinoxaline-8-carboxamide)] | 0.058 µM | 0.14 µM | – |
| CCn1nc(C)cc1C(=O)Nc1nc2cc(C(N)=O)cc3c2n1[C@@H](C/C=C/C[C@H]1CN(CCCOC)c2cc(C(N)=O)cc4nc(NC(=O)c5cc(C)nn5CC)n1c24)CN3C [Example 13, (S)-4-((E)-4-((S)-8-carbamoyl-2-(1-ethyl-3-methyl-1H-pyrazole-5-carboxamido)-6-(3-methoxypropyl)-5,6-dihydro-4H-imidazo[1,5,4-de]quinoxalin-4-yl)but-2-en-1-yl)-2-(1-ethyl-3-methyl-1H-pyrazole-5-carboxamido)-6-methyl-5,6-dihydro-4H-imidazo[1,5,4-de]quinoxaline-8-carboxamide] | – | 0.18 µM | – |
| CCn1nc(C)cc1C(=O)Nc1nc2cc(C(N)=O)cc3c2n1[C@@H](C/C=C\C[C@H]1CN(CCCOC)c2cc(C(N)=O)cc4nc(NC(=O)c5cc(C)nn5CC)n1c24)CN3C [Example 14, (S)-4-((Z)-4-((S)-8-carbamoyl-2-(1-ethyl-3-methyl-1H-pyrazole-5-carboxamido)-6-(3-methoxypropyl)-5,6-dihydro-4H-imidazo[1,5,4-de]quinoxalin-4-yl)but-2-en-1-yl)-2-(1-ethyl-3-methyl-1H-pyrazole-5-carboxamido)-6-methyl-5,6-dihydro-4H-imidazo[1,5,4-de]quinoxaline-8-carboxamide] | – | 0.06 µM | – |
